{"source": "patent US8685977B2", "about": "“Chemical compounds” (Pfizer Limited, priority 2010, dated 2014)", "data": [{"biological_target": "T1, Nav1.7 (or SCN9A) channel (Homo sapiens, UniProt Q15858)", "T1 construct": "expressed in transfected cells", "T1 sequence (Q15858 whole entry)": "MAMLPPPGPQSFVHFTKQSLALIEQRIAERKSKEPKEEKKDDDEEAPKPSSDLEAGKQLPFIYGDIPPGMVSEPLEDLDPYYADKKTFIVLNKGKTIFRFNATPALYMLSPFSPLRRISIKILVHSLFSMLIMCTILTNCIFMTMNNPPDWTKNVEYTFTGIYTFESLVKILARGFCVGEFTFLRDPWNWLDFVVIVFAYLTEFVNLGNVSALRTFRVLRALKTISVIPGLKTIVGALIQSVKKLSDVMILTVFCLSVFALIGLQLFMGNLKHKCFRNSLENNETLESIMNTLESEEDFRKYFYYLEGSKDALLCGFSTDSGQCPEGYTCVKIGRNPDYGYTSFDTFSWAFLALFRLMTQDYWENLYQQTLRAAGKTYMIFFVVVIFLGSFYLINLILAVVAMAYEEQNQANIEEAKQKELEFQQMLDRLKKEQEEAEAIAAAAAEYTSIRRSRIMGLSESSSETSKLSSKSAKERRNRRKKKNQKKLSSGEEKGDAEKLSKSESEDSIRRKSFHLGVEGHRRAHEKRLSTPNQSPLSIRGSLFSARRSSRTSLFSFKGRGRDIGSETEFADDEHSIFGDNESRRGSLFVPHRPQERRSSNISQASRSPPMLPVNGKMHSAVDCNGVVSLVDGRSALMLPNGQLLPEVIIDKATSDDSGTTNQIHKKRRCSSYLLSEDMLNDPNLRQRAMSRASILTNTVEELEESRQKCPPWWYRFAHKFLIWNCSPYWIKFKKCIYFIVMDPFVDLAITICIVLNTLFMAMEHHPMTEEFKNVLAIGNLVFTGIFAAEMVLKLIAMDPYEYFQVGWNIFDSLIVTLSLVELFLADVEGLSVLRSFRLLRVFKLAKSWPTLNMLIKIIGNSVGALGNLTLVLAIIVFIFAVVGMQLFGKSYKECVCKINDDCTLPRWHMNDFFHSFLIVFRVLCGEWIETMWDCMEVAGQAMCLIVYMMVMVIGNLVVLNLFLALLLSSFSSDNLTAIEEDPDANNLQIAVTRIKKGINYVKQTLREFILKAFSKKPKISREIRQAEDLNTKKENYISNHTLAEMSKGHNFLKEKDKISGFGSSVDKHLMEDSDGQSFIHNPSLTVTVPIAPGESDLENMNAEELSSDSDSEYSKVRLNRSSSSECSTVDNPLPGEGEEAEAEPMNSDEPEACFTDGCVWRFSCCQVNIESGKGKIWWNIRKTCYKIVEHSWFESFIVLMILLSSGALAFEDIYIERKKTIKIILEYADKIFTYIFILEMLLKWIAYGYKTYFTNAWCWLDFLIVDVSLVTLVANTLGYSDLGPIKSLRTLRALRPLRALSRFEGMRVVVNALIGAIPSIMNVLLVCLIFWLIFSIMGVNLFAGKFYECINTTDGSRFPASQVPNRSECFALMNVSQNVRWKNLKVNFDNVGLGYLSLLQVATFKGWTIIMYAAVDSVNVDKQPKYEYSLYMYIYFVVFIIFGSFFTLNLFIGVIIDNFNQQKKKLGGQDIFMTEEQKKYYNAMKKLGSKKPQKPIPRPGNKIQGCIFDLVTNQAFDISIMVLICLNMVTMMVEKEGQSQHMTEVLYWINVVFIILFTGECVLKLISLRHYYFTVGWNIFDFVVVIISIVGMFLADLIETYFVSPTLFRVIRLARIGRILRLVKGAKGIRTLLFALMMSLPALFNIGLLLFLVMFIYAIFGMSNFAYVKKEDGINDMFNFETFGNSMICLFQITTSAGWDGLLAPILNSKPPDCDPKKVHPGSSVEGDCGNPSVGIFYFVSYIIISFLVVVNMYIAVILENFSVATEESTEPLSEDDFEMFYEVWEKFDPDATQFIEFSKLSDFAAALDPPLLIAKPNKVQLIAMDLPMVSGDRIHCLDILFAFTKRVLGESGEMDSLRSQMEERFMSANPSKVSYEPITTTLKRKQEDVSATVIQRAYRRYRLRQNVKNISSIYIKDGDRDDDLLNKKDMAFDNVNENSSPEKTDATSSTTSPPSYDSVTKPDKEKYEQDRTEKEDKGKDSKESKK", "test": "Nav1.7 Ionworks Quattro automated electrophysiology assay (HEK cells expressing hSCN9A)", "type": "cell-based", "details": "Ionworks assay (IW), read-out: Nav1.7 EIC50 (IW)", "experimental": "The ability of the compounds of formula (I) to block the Nav1.7 (or SCN9A) channel was measured using the assays described below. Human Embryonic Kidney (HEK) cells were transfected with an hSCN9A construct using lipofectamine reagent (Invitrogen), using standard techniques. Cells stably expressing the hSCN9A constructs were identified by their resistance to G-418 (400 μg/ml). Clones were screened for expression using the whole-cell voltage-clamp technique. HEK cells stably transfected with hSCN9A were maintained in DMEM medium supplemented with 10% heat-inactivated fetal bovine serum and 400 μg/ml G-418 in an incubator at 37° C. with a humidified atmosphere of 10% CO2. For HTS, cells were harvested from flasks by trypsinization and replated in an appropriate multi-well plate (typically 96 or 384 wells/plate) such that confluence would be achieved within 24 hours of plating. For electrophysiological studies, cells were removed from the culture flask by brief trypsinization and re-plated at low density onto glass cover slips. Cells were typically used for electrophysiological experiments within 24 to 72 hours after plating. Electrophysiological assays were also conducted using the lonworks Quattro automated electrophysiological platform (Molecular Devices Corp). Intracellular and extracellular solutions were as described above with the following changes, 100 μg/ml amphotericin was added to the intracellular solution to perforate the membrane and allow electrical access to the cells. hSCN9A cells were grown and harvested as for PatchXpress and cells were resuspended in extracellular solution at a concentration of 3−4×10^6 cells/ml. The onboard liquid handling facility of the lonworks Quattro was used for dispensing cells and application of test compounds. A voltage protocol was then applied that comprised of a voltage step to fully inactivate the sodium channels, followed by a brief hyperpolarized recovery period to allow partial recovery from inactivation for unblocked sodium channels, followed by a test depolarized voltage step to assess magnitude of inhibition by test compound. Compound effect was determined based on current amplitude difference between the pre-compound addition and post-compound addition scans. Compounds of the Examples were tested in the assays described above and found to have the Nav1.7 EIC50 (μM) values specified in the table below. All data are derived from the PatchXpress assay unless explicitly stated otherwise.", "units": {"IC50": "µM"}, "values": [{"compound": "CS(=O)(=O)NC(=O)c1ccc(Oc2ccccc2OC(F)(F)F)cc1", "note": "[Example 209, N-(methylsulfonyl)-4-[2-(trifluoromethoxy)phenoxy]benzamide]", "IC50": 28.2}, {"compound": "CS(=O)(=O)NC(=O)c1ccc(Oc2ccc(C(F)(F)F)cc2)cc1C#N", "note": "[Example 243, 2-cyano-N-(methylsulfonyl)-4-[4-(trifluoromethyl)phenoxy]benzamide]", "IC50": 11.9}, {"compound": "COc1c(C(=O)NS(C)(=O)=O)ccc(Oc2ccc(Cl)c(F)c2)c1F", "note": "[Example 221, 4-(4-chloro-3-fluorophenoxy)-3-fluoro-2-methoxy-N-(methylsulfonyl)benzamide]", "IC50": 300}, {"compound": "Cc1ccccc1Oc1ccc(C(=O)NS(C)(=O)=O)cc1C#N", "note": "[Example 275, 3-cyano-4-(2-methylphenoxy)-N-(methylsulfonyl)benzamide]", "IC50": 116}, {"compound": "CS(=O)(=O)NC(=O)c1cc(Cl)c(Oc2ccccc2Cl)cc1F", "note": "[Example 300, 5-chloro-4-(2-chlorophenoxy)-2-fluoro-N-(methylsulfonyl)benzamide]", "IC50": 3.91}, {"compound": "COc1c(C(=O)NS(C)(=O)=O)ccc(Oc2ccc(C)cc2)c1F", "note": "[Example 226, 3-fluoro-2-methoxy-4-(4-methylphenoxy)-N-(methylsulfonyl)benzamide]", "IC50": 300}, {"compound": "COc1ccc(Oc2cc(F)c(C(=O)NS(C)(=O)=O)cc2Cl)cc1", "note": "[Example 301, 5-chloro-2-fluoro-4-(4-methoxyphenoxy)-N-(methylsulfonyl)benzamide]", "IC50": 61.7}, {"compound": "COc1cc(Oc2ccc(Cl)cc2)ccc1C(=O)NS(C)(=O)=O", "note": "[Example 235, 4-(4-chlorophenoxy)-2-methoxy-N-(methylsulfonyl)benzamide]", "IC50": 36.6}, {"compound": "COc1cc(C(=O)NS(C)(=O)=O)ccc1Oc1ccc(F)c(C(F)(F)F)c1", "note": "[Example 241, 4-[4-fluoro-3-(trifluoromethyl)phenoxy]-3-methoxy-N-(methylsulfonyl)benzamide]", "IC50": 144}, {"compound": "CCOc1ccccc1Oc1ccc(C(=O)NS(C)(=O)=O)cc1C#N", "note": "[Example 273, 3-cyano-4-(2-ethoxyphenoxy)-N-(methylsulfonyl)benzamide]", "IC50": 44.8}, {"compound": "COc1ccc(Oc2ccc(C(=O)NS(C)(=O)=O)cc2C#N)cc1", "note": "[Example 274, 3-cyano-4-(4-methoxyphenoxy)-N-(methylsulfonyl)benzamide]", "IC50": 277}, {"compound": "CCOc1cccc(Oc2ccc(C(=O)NS(C)(=O)=O)cc2)c1", "note": "[Example 259, 4-(3-ethoxyphenoxy)-N-(methylsulfonyl)benzamide]", "IC50": "> 323"}, {"compound": "CS(=O)(=O)NC(=O)c1ccc(Oc2ccccc2C(F)(F)F)c(C#N)c1", "note": "[Example 271, 3-cyano-N-(methylsulfonyl)-4-[2-(trifluoromethyl)phenoxy]benzamide]", "IC50": "> 323"}, {"compound": "CS(=O)(=O)NC(=O)c1ccc(Oc2cccc(C(F)(F)F)c2Cl)cc1", "note": "[Example 210, 4-[2-chloro-3-(trifluoromethyl)phenoxy]-N-(methylsulfonyl)benzamide]", "IC50": 288}]}]}
